These results are taken from ChEMBL document CHEMBL5729609, “Indoleamine-2,3-dioxygenase inhibitor, preparation method therefor and use thereof” (2023).

Each structure is given as a SMILES string.

This assay deals with Indoleamine 2,3-dioxygenase 1 (Homo sapiens, UniProt P14902). Description: Inhibitory Activity Assay: IDO1 (His-tag) enzyme(BPS Bioscience), L-tryptophan (Sigma), methylene blue (Sigma), Catalase originated from the liver of cattle (Sigma), L-ascorbic acid (Sigma), glycerol (Sigma), potassium dihydrogen phosphate solution (Sigma), Tween 20 (Sigma), automatic sampling platformLiquid handler (Bravo & Echo), microplate ReaderSpectraMax M5e (Molecular Devices). Test Method of Compounds: The Compounds are Determined by Absorbance Test Method:The tested compounds are dissolved in DMSO to prepare a high concentration of storage solution. The stock solution of reference compound was diluted with DMSO to prepare a 100× solution. In the first column of the working plate, 8 μL above tested compounds and 8 μL 100× reference compound were respectively added as the highest concentration, and then the highest concentrations were subjected to three times dilution to obtain 11 concentrations and prepare 100× solution. 0.5 μL solution was transferred from the above plate to the detection plate. To each well was added 0.5 μL 100× compound solution. For HPE and ZPE control wells, 0.5 μL 100% DMSO was added. 25 μL 2×IDO1 (His-tag) enzyme solution (containing L-ascorbic acid, methylene blue, and catalase) was added to each well. 25 μL reaction solution without IDO1 (His-tag) enzyme was added into HPE control well. The test plate was centrifugated at 1000 rpm for 1 minute to mix well. Then, the test plate was incubated at room temperature for 30 minutes. 25 μL above 2× substrate (L-tryptophan) solution was added to each well. The test plate was centrifugated at 1000 rpm for 1 minute to mix well. The detection plate was placed on ELISA (SpectraMax M5e), the temperature was set at 25° C., and the absorbance (OD value) was measured at 320 nm every 10 minutes till 60 minutes.<p id="p-0313" num="0311">Calculating the increase ratio of absorbance: the slope of the absorbance increase curve from 10 min to 60 min is derived from SpectralMax M5e. […].
Sequence of Indoleamine 2,3-dioxygenase 1 (P14902 whole entry): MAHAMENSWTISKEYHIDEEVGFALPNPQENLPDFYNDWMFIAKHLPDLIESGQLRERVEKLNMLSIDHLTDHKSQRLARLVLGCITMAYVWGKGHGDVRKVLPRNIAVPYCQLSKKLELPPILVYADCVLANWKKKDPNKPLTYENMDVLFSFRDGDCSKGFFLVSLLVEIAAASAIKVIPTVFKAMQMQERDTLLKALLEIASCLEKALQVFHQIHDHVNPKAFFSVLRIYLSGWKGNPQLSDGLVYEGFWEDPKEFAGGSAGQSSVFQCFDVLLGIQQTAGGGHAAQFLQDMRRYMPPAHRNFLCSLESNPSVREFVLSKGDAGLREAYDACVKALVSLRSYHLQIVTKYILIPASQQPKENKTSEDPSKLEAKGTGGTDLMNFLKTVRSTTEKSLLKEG

A word on the IC50: it is the concentration needed to halve the response being measured. Consider `CNS(=O)(=O)CCCNc1nonc1/C(=N/O)Nc1ccc(F)c(Br)c1`, for which the IC50 is 49 nM.
Take `CCNS(=O)(=O)CCCNc1nonc1C(=NO)Nc1ccc(F)c(Br)c1`: the IC50 is 172 nM.
Then `CC(C)NS(=O)(=O)CCCNc1nonc1/C(=N/O)Nc1ccc(F)c(Br)c1`, with 281 nM.
